# Data published in US20240150322A1, “CDK9 Inhibitors” (Biolexis Therapeutics, Inc., priority 2022, published 2024).
# Like-named read-outs stand apart in the source and are kept apart here.
# Columns and labels:
# [1] = target: TAOK3 (Homo sapiens, UniProt Q9H2K8); assay: scanMAX panel and Kd follow-up; type: binding
# [2] = test system: C4-2; assay: Annexin V/7-AAD apoptosis assay; type: cell-based; conditions: C4-2, treated for 72 hours
# [3] = test system: C4-2; assay: 2D CellTiter-Glo cell viability assay; type: cell-based, human
# Procedure: CellTiter-Glo® 2.0 Luminescent cell viability assay reagent was purchased from Promega and 22Rv1, LASCPC-01, C4-2, C4-2B and NCI-H660, DU-145, PC-3 and LNCap cell lines were obtained from ATCC and a clinical core facility at Huntsman Cancer Institute. […] The results of cell viability were obtained and IC50 values were calculated (see Table 5, below) showing sub-micromolar cell killing of these prostate cancer cells.
# [4] = target: T1, human P450 isozyme 2C9 (Homo sapiens, UniProt P11712); assay: P450 isozyme inhibition assay (baculosomes); type: in vitro ADME; conditions: P450 2C9
# T1 construct: host or cells: insect cells infected with recombinant baculovirus
# Procedure: (§1) P450 baculosome reagents (i.e., microsomes), were prepared from insect cells infected with recombinant baculovirus containing a human P450 isozyme and a rabbit NAPDH-P450 reductase since only a single P450 isozyme is expressed over human liver microsomes (HLM).
# [5] = target: T2, human P450 isozyme 2D6 (Homo sapiens, UniProt P10635); assay: P450 isozyme inhibition assay (baculosomes); type: in vitro ADME; conditions: P450 2D6
# T2 construct: made in house; host or cells: insect cells infected with recombinant baculovirus
# T2 sequence (P10635 whole entry): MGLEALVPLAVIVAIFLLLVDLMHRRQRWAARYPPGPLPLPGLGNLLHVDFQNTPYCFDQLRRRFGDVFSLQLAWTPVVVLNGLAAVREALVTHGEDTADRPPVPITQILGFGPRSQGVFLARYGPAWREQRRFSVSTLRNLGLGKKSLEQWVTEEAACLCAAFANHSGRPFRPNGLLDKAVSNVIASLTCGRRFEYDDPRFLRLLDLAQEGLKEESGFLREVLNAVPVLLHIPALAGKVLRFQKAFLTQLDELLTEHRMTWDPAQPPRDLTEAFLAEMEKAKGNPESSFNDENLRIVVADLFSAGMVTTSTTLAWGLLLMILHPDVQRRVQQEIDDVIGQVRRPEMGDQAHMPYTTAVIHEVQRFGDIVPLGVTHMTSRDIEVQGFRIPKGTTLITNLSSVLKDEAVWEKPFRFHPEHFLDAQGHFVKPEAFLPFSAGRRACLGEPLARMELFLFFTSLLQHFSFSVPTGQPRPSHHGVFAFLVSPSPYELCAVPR
# Procedure: as §1
# [6] = target: T3, human P450 isozyme 1A2 (Homo sapiens, UniProt P05177); assay: P450 isozyme inhibition assay (baculosomes); type: in vitro ADME; conditions: P450 1A2
# T3 construct: host or cells: insect cells infected with recombinant baculovirus
# T3 sequence (P05177 whole entry): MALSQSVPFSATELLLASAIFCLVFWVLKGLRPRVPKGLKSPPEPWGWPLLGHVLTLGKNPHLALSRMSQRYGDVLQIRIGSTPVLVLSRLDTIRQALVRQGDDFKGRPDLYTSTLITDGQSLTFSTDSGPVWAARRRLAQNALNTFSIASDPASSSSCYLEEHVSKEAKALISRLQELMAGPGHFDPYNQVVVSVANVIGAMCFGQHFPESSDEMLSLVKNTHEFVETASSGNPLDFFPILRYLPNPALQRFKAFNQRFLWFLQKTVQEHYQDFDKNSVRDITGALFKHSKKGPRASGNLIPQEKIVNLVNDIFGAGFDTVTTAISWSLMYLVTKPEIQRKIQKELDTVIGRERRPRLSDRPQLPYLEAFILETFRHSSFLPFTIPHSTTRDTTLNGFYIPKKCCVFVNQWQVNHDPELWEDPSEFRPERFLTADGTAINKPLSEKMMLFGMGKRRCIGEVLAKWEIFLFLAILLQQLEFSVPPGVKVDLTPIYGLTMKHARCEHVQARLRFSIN
# Procedure: as §1
# [7] = target: T4, human P450 isozyme 3A4 (Homo sapiens, UniProt P08684); assay: P450 isozyme inhibition assay (baculosomes); type: in vitro ADME; conditions: P450 3A4
# T4 construct: made in house; host or cells: insect cells infected with recombinant baculovirus
# T4 sequence (P08684 whole entry): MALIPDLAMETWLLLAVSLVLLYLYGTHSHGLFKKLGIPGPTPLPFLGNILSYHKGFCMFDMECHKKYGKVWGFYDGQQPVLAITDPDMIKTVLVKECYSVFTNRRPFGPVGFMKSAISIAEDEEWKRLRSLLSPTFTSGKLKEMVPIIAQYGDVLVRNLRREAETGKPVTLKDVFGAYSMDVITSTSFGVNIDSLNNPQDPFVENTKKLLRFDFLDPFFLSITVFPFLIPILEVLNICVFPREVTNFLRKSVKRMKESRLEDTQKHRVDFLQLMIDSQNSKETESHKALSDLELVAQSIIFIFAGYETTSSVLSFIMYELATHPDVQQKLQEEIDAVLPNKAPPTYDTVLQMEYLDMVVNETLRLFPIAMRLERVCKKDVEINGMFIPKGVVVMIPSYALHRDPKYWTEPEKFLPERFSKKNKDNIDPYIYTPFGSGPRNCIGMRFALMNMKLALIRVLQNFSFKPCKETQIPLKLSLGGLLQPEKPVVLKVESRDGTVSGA
# Procedure: as §1
# [8] = target: T5, human P450 isozyme 2C19 (Homo sapiens, UniProt P33261); assay: P450 isozyme inhibition assay (baculosomes); type: in vitro ADME; conditions: P450 2C19
# T5 construct: host or cells: insect cells infected with recombinant baculovirus
# T5 sequence (P33261 whole entry): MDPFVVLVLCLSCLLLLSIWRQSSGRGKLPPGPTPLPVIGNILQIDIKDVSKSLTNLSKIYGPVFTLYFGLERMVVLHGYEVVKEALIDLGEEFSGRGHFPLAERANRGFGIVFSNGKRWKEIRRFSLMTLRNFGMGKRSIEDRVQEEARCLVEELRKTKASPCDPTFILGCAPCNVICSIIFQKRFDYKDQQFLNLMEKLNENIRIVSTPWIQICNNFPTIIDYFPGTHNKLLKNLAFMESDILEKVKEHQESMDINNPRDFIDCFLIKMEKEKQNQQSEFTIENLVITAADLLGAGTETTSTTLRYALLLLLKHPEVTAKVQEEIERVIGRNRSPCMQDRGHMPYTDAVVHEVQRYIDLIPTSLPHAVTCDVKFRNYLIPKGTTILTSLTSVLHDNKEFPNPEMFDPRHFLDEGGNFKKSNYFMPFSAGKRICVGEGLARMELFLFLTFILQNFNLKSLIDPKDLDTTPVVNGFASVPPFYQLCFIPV
# Procedure: as §1
# [9] = test system: Prostate cancer cells; assay: Colony formation assay 2; type: cell-based; conditions: 0.123 to 10 μM for 72 hours
# [10] = test system: 22Rv1; assay: Annexin V/7-AAD apoptosis assay; type: cell-based
# [11] = target: T6, CDK3/cyclinE (Homo sapiens, UniProt Q00526); assay: CDK family kinase profiling, radioisotope-based assay (33P); type: biochemical; parameters: purchased Reaction Biology; conditions: read-out: 10-dose IC50
# Procedure: (§2) CDKs family kinases profiling assays were performed with DiscoveRx Matrix of Kds KINOMEscan (KdELECT) and Reaction Biology using miniaturized radioisotope-based assay platform (^33P). IC50 value estimated based on the best curve fitting available.
# [12] = target: T7, CDK2/cyclinA (Homo sapiens, UniProt P24941); assay: as above; type: biochemical; parameters: purchased Reaction Biology; conditions: read-out: 10-dose IC50
# Procedure: as §2
# [13] = test system: 22RV1 induced neuroendocrine prostate cancer (NEPC) CDX; assay: In vivo tumor efficacy study, 22Rv1 NEPC CDX
# Procedure: 22Rv1 cells were cultured in RPMI supplemented with 10% FBS and 1% P/S, in a humidified incubator at 37° C. and 5% CO2. Nu/nu Balb/c homozygous mice were procured through Jackson laboratory (Strain 002019). Mice were fed Teklad irradiated (sterilized) mouse diet and bedded with Teklad irradiated (sterilized) corncob bedding from Envigo (Indianapolis, IN). Mice were housed in Optimice carousel sterile quarters with filtered air supply in disposable cages from Animal Care Systems, Inc. (Centennial, CO). A 12-hour light/12-hour dark light cycle is observed, with animal handling only taking place during the light cycle.
# 22Rv1 Implantation: On the day of implantation, cells were trypsinized and allowed to detach from flasks. Trypsin was then neutralized with complete media and cells were spun at 300×g. Media was aspirated and cells were re-suspended in 50:50 Cultrex RPMI (no supplementation) at a concentration of 5×10^7 cells/mL. A volume of 100 μL was injected into the right hind flank of each animal (a total of 5×10^6 cells per mouse). Cells were checked for viability using trypan blue exclusion and found to be >98% viable.
# • All mice were dosed orally, and the observation duration was 21 days […]
# Tumor volumes: Tumor volumes were measured by digital caliper, and volume was calculated using the formula [Width^2×Length]/2. All tumor volume measurements are recorded. […]
# [14] = target: PRKD3 (Homo sapiens, UniProt O94806); assay: scanMAX panel and Kd follow-up; type: binding
# Sequence of PRKD3 (O94806 whole entry): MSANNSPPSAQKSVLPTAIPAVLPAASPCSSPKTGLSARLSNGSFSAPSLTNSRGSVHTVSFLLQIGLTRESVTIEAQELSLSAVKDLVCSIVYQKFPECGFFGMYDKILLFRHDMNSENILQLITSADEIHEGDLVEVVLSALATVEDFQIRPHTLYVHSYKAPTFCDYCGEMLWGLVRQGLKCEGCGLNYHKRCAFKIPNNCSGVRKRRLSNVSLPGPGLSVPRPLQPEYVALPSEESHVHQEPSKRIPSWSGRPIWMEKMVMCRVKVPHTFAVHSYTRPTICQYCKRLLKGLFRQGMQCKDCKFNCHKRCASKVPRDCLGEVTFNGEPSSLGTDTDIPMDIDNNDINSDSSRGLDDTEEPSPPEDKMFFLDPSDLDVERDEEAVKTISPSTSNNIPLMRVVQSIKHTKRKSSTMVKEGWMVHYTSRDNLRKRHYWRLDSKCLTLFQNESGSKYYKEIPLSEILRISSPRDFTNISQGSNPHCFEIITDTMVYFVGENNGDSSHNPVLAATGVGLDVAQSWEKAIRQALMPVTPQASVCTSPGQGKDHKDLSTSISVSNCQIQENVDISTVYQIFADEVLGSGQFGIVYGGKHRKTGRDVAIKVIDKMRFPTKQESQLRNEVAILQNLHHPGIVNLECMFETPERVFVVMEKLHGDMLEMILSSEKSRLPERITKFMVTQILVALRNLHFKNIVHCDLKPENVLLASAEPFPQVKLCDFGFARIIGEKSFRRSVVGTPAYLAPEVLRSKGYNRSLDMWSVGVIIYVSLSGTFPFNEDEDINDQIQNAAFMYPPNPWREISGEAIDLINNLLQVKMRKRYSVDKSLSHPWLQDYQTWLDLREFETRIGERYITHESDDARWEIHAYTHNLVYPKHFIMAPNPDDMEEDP
# [15] = Pharmacokinetic study in male Beagle dogs; type: in vivo; conditions: dog, plasma; for Tmax: read-out: Tmax (hours), median (min-max); for Vd: male, Beagle, iv, 1 mg/kg
# Procedure: Last time of mean concentrations was 24 hours following intravenous bolus injection.
# [16] = target: CDK4/cyclinD (Homo sapiens, UniProt P11802); assay: DiscoveRx KINOMEscan Kd (KdELECT); type: binding
# Sequence of CDK4/cyclinD (P11802 whole entry): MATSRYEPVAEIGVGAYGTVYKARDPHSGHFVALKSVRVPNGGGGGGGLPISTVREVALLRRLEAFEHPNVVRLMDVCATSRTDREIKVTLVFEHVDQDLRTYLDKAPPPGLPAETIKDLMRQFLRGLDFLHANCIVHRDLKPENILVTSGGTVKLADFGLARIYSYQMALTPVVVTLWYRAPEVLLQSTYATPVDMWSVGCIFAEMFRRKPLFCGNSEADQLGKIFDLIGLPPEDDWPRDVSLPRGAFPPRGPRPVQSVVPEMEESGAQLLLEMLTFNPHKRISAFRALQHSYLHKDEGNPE
# Sequence of CDK4/cyclinD (P24385 whole entry partner): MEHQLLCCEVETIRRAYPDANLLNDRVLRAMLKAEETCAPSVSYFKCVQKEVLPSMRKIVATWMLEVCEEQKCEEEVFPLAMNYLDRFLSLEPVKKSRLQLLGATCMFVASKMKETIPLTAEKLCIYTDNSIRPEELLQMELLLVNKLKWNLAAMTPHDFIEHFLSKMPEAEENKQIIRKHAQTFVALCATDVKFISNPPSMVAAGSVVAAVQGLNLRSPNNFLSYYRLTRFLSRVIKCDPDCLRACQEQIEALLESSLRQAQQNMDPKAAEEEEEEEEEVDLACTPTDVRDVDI
# Procedure: as §2
# [17] = target: T6, CDK3/cyclinE; assay: DiscoveRx KINOMEscan Kd (KdELECT); type: binding
# Procedure: as §2
# [18] = target: T7, CDK2/cyclinA; assay: DiscoveRx KINOMEscan Kd (KdELECT); type: binding
# Procedure: as §2
# [19] = target: ERK8 (Homo sapiens, UniProt Q8TD08); assay: scanMAX panel and Kd follow-up; type: binding
# Sequence of ERK8 (Q8TD08 whole entry): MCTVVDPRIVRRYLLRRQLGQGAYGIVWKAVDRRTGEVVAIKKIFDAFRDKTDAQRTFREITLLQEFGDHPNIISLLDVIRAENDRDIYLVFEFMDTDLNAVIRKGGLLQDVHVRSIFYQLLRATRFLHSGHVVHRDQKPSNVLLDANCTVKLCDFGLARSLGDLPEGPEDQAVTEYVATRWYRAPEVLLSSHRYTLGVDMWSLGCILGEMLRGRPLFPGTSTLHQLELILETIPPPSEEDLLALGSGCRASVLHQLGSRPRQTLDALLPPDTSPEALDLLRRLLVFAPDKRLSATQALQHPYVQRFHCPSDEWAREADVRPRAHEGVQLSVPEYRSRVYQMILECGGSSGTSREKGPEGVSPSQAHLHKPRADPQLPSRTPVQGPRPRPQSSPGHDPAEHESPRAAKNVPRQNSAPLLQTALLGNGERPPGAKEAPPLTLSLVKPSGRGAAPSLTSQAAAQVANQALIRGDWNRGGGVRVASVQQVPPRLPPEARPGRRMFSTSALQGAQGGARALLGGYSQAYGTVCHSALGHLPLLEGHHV
# [20] = test system: C4-2 human neuroendocrine prostate cancer xenograft; assay: In vivo tumor efficacy study 3, C4-2 xenograft
# Sequence of TAOK3 (Q9H2K8 whole entry): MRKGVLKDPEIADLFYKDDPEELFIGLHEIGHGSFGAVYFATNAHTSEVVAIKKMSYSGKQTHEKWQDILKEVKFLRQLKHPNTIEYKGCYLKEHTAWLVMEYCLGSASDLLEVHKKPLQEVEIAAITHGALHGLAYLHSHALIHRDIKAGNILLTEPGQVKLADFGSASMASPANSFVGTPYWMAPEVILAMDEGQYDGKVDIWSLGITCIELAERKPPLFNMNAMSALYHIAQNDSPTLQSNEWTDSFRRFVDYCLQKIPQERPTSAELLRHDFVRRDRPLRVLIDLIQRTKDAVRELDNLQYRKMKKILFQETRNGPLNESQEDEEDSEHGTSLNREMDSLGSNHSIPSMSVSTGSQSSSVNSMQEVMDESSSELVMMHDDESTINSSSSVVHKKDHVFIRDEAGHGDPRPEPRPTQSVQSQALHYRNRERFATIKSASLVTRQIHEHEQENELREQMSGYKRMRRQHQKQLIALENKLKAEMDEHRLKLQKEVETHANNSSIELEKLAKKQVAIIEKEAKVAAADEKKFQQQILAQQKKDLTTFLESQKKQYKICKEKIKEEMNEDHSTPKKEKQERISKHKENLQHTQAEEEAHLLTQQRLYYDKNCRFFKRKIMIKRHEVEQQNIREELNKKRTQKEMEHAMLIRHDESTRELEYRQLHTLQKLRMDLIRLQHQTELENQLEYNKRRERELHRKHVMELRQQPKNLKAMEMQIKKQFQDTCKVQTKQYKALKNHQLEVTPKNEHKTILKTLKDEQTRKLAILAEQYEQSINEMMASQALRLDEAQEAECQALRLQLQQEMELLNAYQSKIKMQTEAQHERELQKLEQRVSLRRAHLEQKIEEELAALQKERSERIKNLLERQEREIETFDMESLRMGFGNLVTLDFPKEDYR
compound,measurement,setting,value
"CC(C)c1c2cc(-c3ccnc(N[C@H]4CC[C@H](N)C4)n3)ccc2nn1C [Compound I-2, (1S,3S)-[3-[4-(3-isopropyl-2-methylindazol-5-yl)pyrimidin-2-yl]aminocyclopentan-1-yl]-1,3-diamine]",Kd,[1]; TAOK3,0.0092 µM
same,remaining binding at 1 µM,"[1]; TAOK3, 1 μM, read-out: % of control activity",0 to 1%
same,cell death,[2],84%
same,IC50,"[3]; C4-2, 72 hours",0.0282 µM
same,IC50,"[3]; Homo sapiens, C4-2, 72 h",0.028 µM
same,IC50,[4],50.8 µM
same,IC50,[5],100 µM
same,IC50,[6],29.4 µM
same,IC50,[7],31.1 µM
same,IC50,[8],28.3 µM
same,colony formation,[9],complete inhibition of colony formation
same,apoptosis by Annexin V/7-AAD staining,[10]; 22Rv1,increased apoptosis in a dose dependent manner
same,cell death,"[10]; 22Rv1, treated for 72 hours",71%
same,IC50,[11],0.115 µM
same,IC50,[12],0.0176 µM
same,tumor growth,"[13]; 22Rv1, 30, 50, 65 mg/kg orally once daily, 21 days",inhibit tumor growth in a dose dependent manner
same,tolerability,"[13]; 22Rv1 study, >50 mg/kg dosing levels",Tolerability issues
same,Kd,[14]; PRKD3,0.23 µM
same,remaining binding at 1 µM,"[14]; PRKD3, 1 μM, read-out: % of control activity",0 to 1%
same,half-life,[15]; IV 1 mg/kg,4.26 h
same,half-life,[15]; oral 3 mg/kg,5.81 h
same,AUC,[15]; IV 1 mg/kg,529 ± 200 ng·h/mL
same,AUC(0-inf),[15]; IV 1 mg/kg,566 ± 191 ng·h/mL
same,MRT,[15]; IV 1 mg/kg,3.82 ± 1.25 h
same,clearance,[15]; IV 1 mg/kg,31.8 ± 10.7 mL/min/kg
same,C0,"[15]; IV 1 mg/kg, extrapolated concentration at time zero",312 ± 98.3 ng/mL
same,Tmax,[15]; IV 1 mg/kg,0.08 h
same,AUC,[15]; oral 3 mg/kg,1300 ± 233 ng·h/mL
same,AUC(0-inf),[15]; oral 3 mg/kg,1340 ± 242 ng·h/mL
same,Cmax,[15]; oral 3 mg/kg,373 ± 238 ng/mL
same,MRT,[15]; oral 3 mg/kg,4.92 ± 0.97 h
same,bioavailability,"[15]; oral 3 mg/kg vs IV 1 mg/kg, from nominal doses and AUCinf, read-out: % F (oral bioavailability)",83 ± 22%
same,Tmax,[15]; oral 3 mg/kg,1 h
same,Vd,"[15]; IV 1 mg/kg, read-out: Vd",11.3 ± 2.93 L/kg
same,Vd,"[15]; IV 1 mg/kg, read-out: Vss",9.35 ± 2.74 L/kg
same,Kd,[16],0.022 µM
same,Kd,[17],0.031 µM
same,Kd,[18],0.03 µM
same,Kd,[19]; ERK8,0.0055 µM
same,remaining binding at 1 µM,"[19]; ERK8, 1 μM, read-out: % of control activity",0 to 1%
same,decrease in tumor weight as compared to vehicle control group,"[20]; C4-2, 50-30 mg/kg p.o., day 21",48.72%
same,tumor volume as compared to vehicle control group,"[20]; C4-2, 50-30 mg/kg p.o., days 18 to 21",significant decrease tumor volume
same,tumor growth inhibition from vehicle control group,"[20]; C4-2, 50-30 mg/kg p.o., terminal day 21",43.25%
same,body weight as compared to vehicle control group,"[20]; C4-2 study, 50-30 mg/kg p.o., starting at day 4",significant body weight loss
same,severe body weight loss,"[20]; C4-2 study, mouse that died",~15%
